By LD50 is commonly meant the dose at which mortality reaches 50%. A higher LD50 goes with lower toxicity.

The nature of data set [1]: in vivo. Particulars: mouse, im.
Another data set has as its target electric eel AChE (Electrophorus electricus, UniProt O42275). In words: biochemical.
In the next data set the target is human erythrocyte AChE (Homo sapiens, UniProt P22303). In words: biochemical. Particulars: read-out: kobs /[I] (human).
On the set-up of data set [2]: species or system Male ICR mice. Particulars: mouse, in vivo.
A short description of data set [3]: in vivo. The note with it: mouse, po.
For another data set, the system named is AChE. The class given is biochemical, electric eel and human.
The conditions of data set [4]: mouse, in vivo.

Entries after “also recorded” stand apart in the source; their conditions may differ.

Chain of electric eel AChE (O42275 24-633): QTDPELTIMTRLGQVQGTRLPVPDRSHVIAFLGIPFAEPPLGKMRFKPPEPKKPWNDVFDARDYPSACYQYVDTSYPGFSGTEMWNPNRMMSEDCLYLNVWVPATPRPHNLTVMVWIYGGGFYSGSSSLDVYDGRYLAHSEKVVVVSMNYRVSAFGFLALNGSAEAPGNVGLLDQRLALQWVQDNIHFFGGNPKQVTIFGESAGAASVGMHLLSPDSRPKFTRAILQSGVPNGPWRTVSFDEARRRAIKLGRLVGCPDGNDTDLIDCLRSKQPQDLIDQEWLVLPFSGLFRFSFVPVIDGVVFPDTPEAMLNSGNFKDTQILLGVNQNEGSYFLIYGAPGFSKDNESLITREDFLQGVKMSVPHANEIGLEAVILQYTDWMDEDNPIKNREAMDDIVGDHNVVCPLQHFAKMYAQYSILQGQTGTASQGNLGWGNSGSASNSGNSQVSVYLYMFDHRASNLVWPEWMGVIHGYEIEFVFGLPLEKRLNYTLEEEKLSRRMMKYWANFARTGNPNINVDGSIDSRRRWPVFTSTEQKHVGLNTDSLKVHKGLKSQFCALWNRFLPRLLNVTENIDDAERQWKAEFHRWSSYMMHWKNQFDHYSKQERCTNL
Chain of human erythrocyte AChE (P22303-2 with tags, fused parts or gaps limits assumed): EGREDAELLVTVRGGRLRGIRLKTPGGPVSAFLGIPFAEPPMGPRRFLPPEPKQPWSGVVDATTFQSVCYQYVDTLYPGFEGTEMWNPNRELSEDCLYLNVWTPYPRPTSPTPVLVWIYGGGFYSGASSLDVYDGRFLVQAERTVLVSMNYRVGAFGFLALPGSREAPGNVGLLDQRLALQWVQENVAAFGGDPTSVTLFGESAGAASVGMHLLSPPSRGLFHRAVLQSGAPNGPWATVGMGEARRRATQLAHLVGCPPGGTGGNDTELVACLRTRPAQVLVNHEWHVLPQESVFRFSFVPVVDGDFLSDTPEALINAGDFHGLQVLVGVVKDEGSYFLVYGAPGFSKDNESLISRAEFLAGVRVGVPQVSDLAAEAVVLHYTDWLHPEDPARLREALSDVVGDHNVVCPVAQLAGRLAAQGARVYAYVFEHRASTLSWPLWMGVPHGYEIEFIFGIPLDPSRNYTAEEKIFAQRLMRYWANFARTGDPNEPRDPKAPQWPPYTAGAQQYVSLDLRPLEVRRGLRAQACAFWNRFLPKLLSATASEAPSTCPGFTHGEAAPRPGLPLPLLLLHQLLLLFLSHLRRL

For the compound `C[n+]1ccccc1C=NNC(N)=O` [Compound 3c], the 50% lethal dose (LD50) at 24 h in “in vivo [1]” is more than 560 µmol/kg.

In the data set “in vivo [1]”, `C[n+]1cccc(O)c1C=NNC(N)=O.[Cl-]` [Compound 3a, 2-[[(Aminocarbonyl)hydrazono]methyl]-3-hydroxy-1-methyl pyridinium chloride] showed an LD50 at 24 h of more than 1100 µmol/kg.

On to `NC(=O)c1cc[n+](COC[n+]2ccccc2/C=N/O)cc1` [HI-6, reference compound], for which the LD50 at 24 h in “in vivo [1]” was determined as 4500 µmol/kg. `CN(C)C(=O)Oc1ccc[n+](C)c1` [Pyr, Pyridostigmine]: the kinact/KI stood at 580 M⁻¹ s⁻¹ on electric eel AChE (read-out: kobs /[I] (eel)) and 13000 M⁻¹ s⁻¹ on human erythrocyte AChE. Consider `C[n+]1cccc(O)c1C=NNC(=O)C[n+]1ccccc1` [Compound 5a, 2-(3-Hydroxy-1-methyl-2-pyridinemethylene)-1-[2-(1-pyridinium)acetyl]hydrazine dichloride], for which the median lethal dose (LD50) at 24 h was more than 670 µmol/kg in the data set “in vivo [1]” and 2900 µmol/kg in “in vivo [3]”. The “GA reactivator activity in words” value in data set [2] is reported as “significant activity as GA reactivators; also recorded: good in vivo reactivators against GA”. `C[n+]1cccc(O)c1C=NOCc1ccc(Cl)cc1` [Compound 1d, O-(p-Chlorobenzyl)-N-(3-hydroxy-1-methyl-2-pyridinemethylene) hydroxylamine chloride] came in with an LD50 at 24 h in the data set “in vivo [1]” of more than 320 µmol/kg. The mode of inhibition result in the data set with AChE is “pure competitive inhibition”. Turning to `C[n+]1ccccc1C=NNC(=O)Nc1ccccc1.[Cl-]` [Compound 3d, 1-Methyl-2-[[(N-phenylaminocarbonyl)hydrazono]methyl]pyridinium chloride], the LD50 at 24 h in “in vivo [1]” is more than 430 µmol/kg.

With `CON=Cc1c(O)ccc[n+]1C` [Compound 1c, O-Methyl-N-(3-hydroxy-1-methyl-2-pyridinemethylene) hydroxylamine chloride], the LD50 at 24 h in the data set “in vivo [1]” was more than 1970 µmol/kg. Compound `C[n+]1ccccc1C=NNC(=O)C[n+]1ccccc1` [Compound 5b, 2-(1-Methyl-2-pyridinemethylene)-1-[2-(1-pyridinium)acetyl]hydrazine dichloride] showed a 50% lethal dose (LD50) at 24 h in the data set “in vivo [1]” of 380 µmol/kg. In addition, in data set [2], the “GA reactivator activity in words” value is given as “significant activity as GA reactivators; also recorded: good in vivo reactivators against GA”. Take `COc1ccc(CON=Cc2c(O)ccc[n+]2C)cc1` [Compound 1e, O-(p-Methoxybenzyl)-N-(3-hydroxy-1-methyl-2-pyridinemethylene) hydroxylamine chloride]: the LD50 at 24 h was more than 760 µmol/kg in the data set “in vivo [1]” and more than 3200 µmol/kg in “in vivo [3]”. Also, the mode of inhibition entry with AChE was “pure competitive inhibition”. In “in vivo [1]”, `C[n+]1ccccc1C=NOCc1ccccc1` [Compound 1a, O-Benzyl-N-(1-methyl-2-pyridinemethylene) hydroxylamine chloride] showed a median lethal dose (LD50) at 24 h of 180 µmol/kg. In addition, the mode of inhibition entry in the data set with AChE is listed as “pure competitive inhibition”. Take `C[n+]1cccc(O)c1C=NNC(=O)Nc1ccccc1.[Cl-]` [Compound 3b, 3-Hydroxy-1-methyl-2-[[(N-phenylaminocarbonyl)hydrazono]methyl]pyridinium chloride]: the LD50 at 24 h in the data set “in vivo [1]” was more than 40 µmol/kg. Take `C[n+]1cccc(O)c1C=NOCc1ccccc1` [Compound 1b, O-Benzyl-N-(3-hydroxy-1-methyl-2-pyridinemethylene) hydroxylamine chloride]: the 50% lethal dose (LD50) at 24 h in the data set “in vivo [1]” is more than 880 µmol/kg; in the data set “in vivo [3]”, 3600 µmol/kg. For the same compound, in the data set on AChE, the mode of inhibition entry is reported as “pure competitive inhibition”. For `C[n+]1cccc(O)c1C=NO` [Compound 1f], in data set [4], the toxicity in words result is “small increase in toxicity”. The compound `C[n+]1ccccc1/C=N/O` [Compound 2-PAM, reference compound] displayed a 50% lethal dose (LD50) at 24 h in the data set “in vivo [1]” of 853 µmol/kg. As for `CNC(=O)Oc1ccc2c(c1)[C@]1(C)CCN(C)[C@@H]1N2C` [Phy, Physostigmine], on electric eel AChE (0.1 m phosphate buffer), the “kobs /[I] (eel)” value is 14000 M⁻¹ s⁻¹. As for `C[n+]1cc(O)ccc1C=NO` [Compound 1g, reference compound], in data set [4], the toxicity in words entry is on record as “small increase in toxicity”. Further, in the data set “in vivo [1]”, the LD50 at 24 h was more than 514 µmol/kg.

These data come from patent US5180831A (priority 1990, dated 1993).
